Experimental data published in US8729034B2, “Pharmaceutical composition having virucidal and spermicidal activity” (priority 2007, dated 2014).

Legend:
mouse spermatozoa = experiment: Sander & Cramer spermicidal assay (in vitro); format: cell-based; details: Mouse spermatozoa (N = 10); all immobilized within 20 seconds
Procedure: (§1) Sexually mature male mice and rats were autopsied following euthanasia by an overdose of Ketamin (≧200 mg/kg body weight; injected i.p.) and their cauda epididymis were excised. Working suspension of animal spermatozoa was prepared with the exudates obtained after careful pricking of the cauda epididymis with an injection needle (18 G) and the exudates were collected in a conical centrifuge tube.
(§2) The exudates/liquefied human semen samples were suspended in BWW medium (pre equilibrated at 37 degree C.). The spermatozoa with forward motility were separated from immotile or sluggishly motile cells by the swim-up technique and were allowed to disperse evenly within a CO2 incubator at 37 degree C. At least five aliquots from each sample was used to prepare the working spermatozoa suspension. The swim up procedure was as follows:
(§3) Pre equilibrated BWW medium (1.25 ml) was gently layered over cauda-exudates or liquefied human semen (1 ml) in a sterile 15 ml conical-based centrifuge tube. The tube was inclined at an angle of 45 degree and incubated for 1 hour at 37 degree C. in a CO2-incubator. It was then gently returned to the upright position and the uppermost 1 ml medium with a turbid appearance was removed. This aliquot of motile cells was pooled from each set, then diluted with same volumes of pre equilibrated BWW medium, centrifuged at 500 g for 5 minutes and finally resuspended in 1 ml pre equilibrated BWW medium to obtain a working suspension. The sperm cells were counted in a Makler chamber (Zygotec Systems, Springfield, M A, USA) and finally a working spermatozoa suspension having concentration of 25 to 30×10^6 cells/ml was prepared.
(§4) For in vitro assay of spermicidal effect, sperms collected from proven male rats and mice, and motile spermatozoa from liquefied human semen were used.
(§5) The assay was done following the Sander & Cramer assay method. Two hundred micro liter (200 microliters) of working spermatozoa suspension was added to 1 ml solution of test material in BWW medium and mixed on a light vortex for 10 seconds. A wet mount was immediately prepared on a clean microscopy glass slide and examined (at ×100) under a phase contrast microscope (Leitz, Biomed). The weakest concentration that immobilized all spermatozoa within 20 seconds of mixing was recorded as MEC. At least five fields were examined for each wet mount preparation. The observation was repeated with five individual spermatozoa suspension for each concentration of test compound solution. For negative control, saponin solutions were replaced by equal volume of BWW medium, while Nonoxynol 9 was used as positive control.

rat spermatozoa = experiment: Sander & Cramer spermicidal assay (in vitro); format: cell-based; details: Rat spermatozoa (N = 10); all immobilized within 20 seconds
Procedure: as §1, §2, §3, §4, §5

human spermatozoa [1] = details: cited from earlier work
human spermatozoa [2] = experiment: Sander & Cramer spermicidal assay (in vitro); format: cell-based; details: Human spermatozoa (N = 5); weakest concentration immobilizing all spermatozoa within 20 seconds
Procedure: as §2, §3, §4, §5

[3] = tested on: Salmonella typhimurium TA100; experiment: Bacterial reverse mutation assay (MUTA-CHROMOPLATE kit); details: Background = 20, Blank = 0
Text: Ac-B was examined for its ability to produce mutations/revert mutations in a bacterial reverse mutation assay using amino acid-requiring strain of Salmonella typhimurium (S. typhimurium) TA100 and the result was compared with a known mutagen (Na-azide). A commercial kit (The MUTA-CHROMOPLATE) from M/s Environmental Biodetection Products Inc. Ontario, Canada, was used. Suspensions of bacterial cells were exposed to the test substance in the presence and in the absence of an exogenous metabolic activation system. After 5 days of incubation, revertant colonies were detected by the change of colour from blue to yellow on solvent control plates. All yellow, partially yellow or turbid wells were scored as positive, while all purple wells were scored as negative. Number of positive wells for each plate was recorded, their number was counted and compared to that of spontaneous revertant colonies. The “Background” (i.e. no test material added) plate was used as reference for the level of spontaneous or background mutation of the assay organism. The statistical difference was determined using a table provided with the kit.
Score of mutagenicity as per the set criteria of Muta-Chromoplate test kit.

Compound | MEC as per Sander and Cramer Test (mouse spermatozoa) | MEC as per Sander and Cramer Test (rat spermatozoa) | MEC for N-9 (human spermatozoa [1]; closest prior arts) | MEC of N-9 for spermicidal action (human spermatozoa [1]; comparison value in concluding remarks) | MEC as per Sander and Cramer Test (human spermatozoa [2]) | No. of '+' wells (Muta-Chromoplate score) [3]
isononyl-phenyl-polyoxyethylene (9) ether [Nonoxynol 9, reference compound] | 350 (±10) microgram per ml | 350 (±10) microgram per ml | 200-500 microgram per ml | 200-500 microgram | >350 microgram per ml | 
[N-]=[N+]=[N-].[Na+] [Na-azide, reference compound] |  |  |  |  |  | 74
